# Like-named read-outs stand apart in the source and are kept apart here.
# Key:
# [1] = Single ascending-dose (SAD) study, plasma pharmacokinetics; type: in vivo, human; conditions: for Cmax / AUC(0-t) / k el / AUC(0-inf) / MRT / Vd/F / half-life / Tmax: both sexes, human
# Procedure: The study comprised a total of 7 dose groups (2.5, 5, 10, 20, 40, 60, and 80 mg groups, respectively). The first dose group (2.5 mg) consisted of 8 subjects, with 6 receiving HEC113995PA·H2O and 2 receiving placebo. Dose groups 2–7 each included 10 subjects, with 8 subjects receiving HEC113995PA·H2O and 2 subjects receiving placebo. Male and female participants were randomly assigned to the groups. Serial blood samples were collected before and after drug administration to determine the plasma concentration of pharmacokinetics (PK) and to evaluate the pharmacokinetic characteristics. The time points of blood collection and safety evaluation of PK in the second to seventh dose groups were adjusted based on the results of the first dose group. Drug safety and tolerability were evaluated on day 2 and 4 in the first dose group and on day 4 and 7 in the second to seventh dose groups. The trial was conducted in a dose-escalation manner, with progression to the next dose arm only after the safety of the previous arm had been evaluated. In the fourth group (20 mg group), in addition to blood samples, urine and stool samples were also collected for in vivo drug metabolic transformation studies.
# In the first dose group of single ascending-dose study, PK blood samples were collected at 0.5 h before administration and 0.5, 1, 1.5, 2, 2.5, 3, 4, 5, 6, 8, 10, 12, 24, 36, 48, and 72 h after administration. In other SAD groups, MAD groups and food effect study, PK blood samples were collected at 0.5 h before administration, and 1, 2, 3, 4, 5, 6, 7, 8, 10, 12, 24, 48, 72, 96, 120 and 144 h after administration. Approximately 4 mL of venous blood was obtained from each collection and placed in a vacuum collection vessel containing K2EDTA anticoagulant. The blood was centrifuged and packed according to the instruction provided by the Biological Sample Detection and Analysis Unit. Briefly, all samples were centrifuged at 4°C, 1,500 g for 10 min within 0.5 h after blood collection. After centrifugation, the plasma was aliquoted into two cryogenic storage tubes. The first tube (Tube A) contained at least 0.8 mL of plasma for analytical testing, and the remaining plasma is allocated into the backup tube (Tube B). The plasma samples were stored at −80°C within 1 h after aliquoting for further analysis.
# The concentration of HEC113995PA·H2O in human plasma samples (K2EDTA) was quantitatively analyzed using the LC-MS/MS method. Plasma samples (50 μL) were processed using protein precipitation with 5 μL deuterated internal standard (HEC124659) and 100 μL acetonitrile. The Shimadzu LCMS-8060 system coupled with a GL Sciences Inc. InertSustain AQ-C18 HP column (50 × 2.1 mm, 3 μm) achieved chromatographic separation through gradient elution using 0.04% TFA aqueous solution (pH 2.1) and acetonitrile at 0.4 mL/min. ESI-positive mode detection employed optimized parameters: 300°C interface temperature, 250°C DL temperature, 3 L/min nebulizer gas, and 400°C heating block temperature.
# Using WinNonlin 7.0 for non-compartmental analysis (NCA), pharmacokinetic (PK) parameters were meticulously calculated based on the actual sampling times for plasma, urine, and fecal samples from each subject post-administration. These parameters encompassed a comprehensive range, including the area under the concentration–time curve (AUC), AUC from time zero (pre-dose) to the time of the last measurable concentration (AUC0-t), and AUC from time zero (pre-dose) to infinity (AUC0-∞). Additionally, maximum observed plasma concentration (Cmax), time to achieve maximum plasma concentration (Tmax), terminal elimination half-life (t1/2), elimination rate constant (Ke), apparent volume of distribution (Vd/F), clearance rate (CL/F), and mean residence time (MRT) were also determined. The AUC0-t and AUC0-∞ values were computed using the linear trapezoidal rule method. Tmax and Cmax were ascertained based on the actual observed data. […]
# rodent = assay: In vivo rodent studies (comparison with Vilazodone, sedation); conditions: rodent behavioral despair models; unpublished data
# [2] = across single-dose groups 2.5–80 mg
smiles,measurement,setting,value
Cc1nc(-c2cnc(N3CCN(CCCc4c[nH]c5ccc(C#N)cc45)CC3)nc2)sc1C(N)=O [HEC113995PA·H2O],Cl/F,"[1]; SAD single dose 2.5 mg, N = 6, mean (SD)",12.03 (3.52) L/h
same,Cl/F,"[1]; SAD single dose 5 mg, N = 8, mean (SD)",10.94 (1.75) L/h
same,Cl/F,"[1]; SAD single dose 10 mg, N = 8, mean (SD)",12.65 (3.13) L/h
same,Cl/F,"[1]; SAD single dose 20 mg, N = 8, mean (SD)",14.53 (5.78) L/h
same,Cl/F,"[1]; SAD single dose 40 mg, N = 8, mean (SD)",14.14 (4.06) L/h
same,Cl/F,"[1]; SAD single dose 60 mg, N = 8, mean (SD)",15.07 (4.58) L/h
same,Cl/F,"[1]; SAD single dose 80 mg, N = 8, mean (SD)",14 (2.41) L/h
same,"apparent clearance (CL/F), range of arithmetic means",[1]; [2],10.9380 to 15.0736 L/h
same,"elimination rate constant (Kel), range of arithmetic means",[1]; [2],0.0187 to 0.0256 h⁻¹
same,Cmax,"[1]; oral, SAD single dose 2.5 mg, N = 6, plasma, mean (SD), read-out: Cmax",0.00527 µg/mL
same,Cmax,"[1]; oral, SAD single dose 5 mg, N = 8, plasma, mean (SD), read-out: Cmax",0.014 µg/mL
same,Cmax,"[1]; oral, SAD single dose 10 mg, N = 8, plasma, mean (SD), read-out: Cmax",0.0244 µg/mL
same,Cmax,"[1]; oral, SAD single dose 20 mg, N = 8, plasma, mean (SD), read-out: Cmax",0.0406 µg/mL
same,Cmax,"[1]; oral, SAD single dose 40 mg, N = 8, plasma, mean (SD), read-out: Cmax",0.0885 µg/mL
same,Cmax,"[1]; oral, SAD single dose 60 mg, N = 8, plasma, mean (SD), read-out: Cmax",0.149 µg/mL
same,Cmax,"[1]; oral, SAD single dose 80 mg, N = 8, plasma, mean (SD), read-out: Cmax",0.164 µg/mL
same,AUC(0-t),"[1]; plasma, oral, 2.5 mg, SAD single dose 2.5 mg, N = 6, mean (SD), read-out: AUC0-t",0.177 µg·h/mL
same,AUC(0-t),"[1]; plasma, oral, 5 mg, SAD single dose 5 mg, N = 8, mean (SD), read-out: AUC0-t",0.439 µg·h/mL
same,AUC(0-t),"[1]; plasma, oral, 10 mg, SAD single dose 10 mg, N = 8, mean (SD), read-out: AUC0-t",0.801 µg·h/mL
same,AUC(0-t),"[1]; plasma, oral, 20 mg, SAD single dose 20 mg, N = 8, mean (SD), read-out: AUC0-t",1.45 µg·h/mL
same,AUC(0-t),"[1]; plasma, oral, 40 mg, SAD single dose 40 mg, N = 8, mean (SD), read-out: AUC0-t",2.91 µg·h/mL
same,AUC(0-t),"[1]; plasma, oral, 60 mg, SAD single dose 60 mg, N = 8, mean (SD), read-out: AUC0-t",4.1 µg·h/mL
same,AUC(0-t),"[1]; plasma, oral, 80 mg, SAD single dose 80 mg, N = 8, mean (SD), read-out: AUC0-t",5.65 µg·h/mL
same,k el,"[1]; plasma, oral, SAD single dose 2.5 mg, N = 6, mean (SD)",6.39e-06 s⁻¹
same,AUC(0-inf),"[1]; plasma, oral, SAD single dose 2.5 mg, N = 6, mean (SD), read-out: AUC0-∞",0.22 µg·h/mL
same,MRT,"[1]; plasma, oral, SAD single dose 2.5 mg, N = 6, mean (SD), read-out: MRT",44.8 h
same,Vd/F,"[1]; plasma, oral, SAD single dose 2.5 mg, N = 6, mean (SD), read-out: Vz/F",518 L
same,half-life,"[1]; plasma, oral, SAD single dose 2.5 mg, N = 6, mean (SD), read-out: t1/2 (converted)",30.3 h
same,Tmax,"[1]; plasma, oral, SAD single dose 2.5 mg, N = 6, median (min, max), read-out: Tmax",6 h
same,k el,"[1]; plasma, oral, SAD single dose 5 mg, N = 8, mean (SD)",7.11e-06 s⁻¹
same,AUC(0-inf),"[1]; plasma, oral, SAD single dose 5 mg, N = 8, mean (SD), read-out: AUC0-∞",0.467 µg·h/mL
same,MRT,"[1]; plasma, oral, SAD single dose 5 mg, N = 8, mean (SD), read-out: MRT",39.8 h
same,Vd/F,"[1]; plasma, oral, SAD single dose 5 mg, N = 8, mean (SD), read-out: Vz/F",430 L
same,half-life,"[1]; plasma, oral, SAD single dose 5 mg, N = 8, mean (SD), read-out: t1/2 (converted)",27.2 h
same,Tmax,"[1]; plasma, oral, SAD single dose 5 mg, N = 8, median (min, max), read-out: Tmax",5 h
same,k el,"[1]; plasma, oral, SAD single dose 10 mg, N = 8, mean (SD)",7.11e-06 s⁻¹
same,AUC(0-inf),"[1]; plasma, oral, SAD single dose 10 mg, N = 8, mean (SD), read-out: AUC0-∞",0.832 µg·h/mL
same,MRT,"[1]; plasma, oral, SAD single dose 10 mg, N = 8, mean (SD), read-out: MRT",39.1 h
same,Vd/F,"[1]; plasma, oral, SAD single dose 10 mg, N = 8, mean (SD), read-out: Vz/F",494 L
same,half-life,"[1]; plasma, oral, SAD single dose 10 mg, N = 8, mean (SD), read-out: t1/2 (converted)",28 h
same,Tmax,"[1]; plasma, oral, SAD single dose 10 mg, N = 8, median (min, max), read-out: Tmax",6 h
same,k el,"[1]; plasma, oral, SAD single dose 20 mg, N = 8, mean (SD)",5.19e-06 s⁻¹
same,AUC(0-inf),"[1]; plasma, oral, SAD single dose 20 mg, N = 8, mean (SD), read-out: AUC0-∞",1.52 µg·h/mL
same,MRT,"[1]; plasma, oral, SAD single dose 20 mg, N = 8, mean (SD), read-out: MRT",42.2 h
same,Vd/F,"[1]; plasma, oral, SAD single dose 20 mg, N = 8, mean (SD), read-out: Vz/F",772 L
same,half-life,"[1]; plasma, oral, SAD single dose 20 mg, N = 8, mean (SD), read-out: t1/2 (converted)",38.6 h
same,Tmax,"[1]; plasma, oral, SAD single dose 20 mg, N = 8, median (min, max), read-out: Tmax",8 h
same,k el,"[1]; plasma, oral, SAD single dose 40 mg, N = 8, mean (SD)",6.08e-06 s⁻¹
same,AUC(0-inf),"[1]; plasma, oral, SAD single dose 40 mg, N = 8, mean (SD), read-out: AUC0-∞",3.01 µg·h/mL
same,MRT,"[1]; plasma, oral, SAD single dose 40 mg, N = 8, mean (SD), read-out: MRT",38.1 h
same,Vd/F,"[1]; plasma, oral, SAD single dose 40 mg, N = 8, mean (SD), read-out: Vz/F",661 L
same,half-life,"[1]; plasma, oral, SAD single dose 40 mg, N = 8, mean (SD), read-out: t1/2 (converted)",32.2 h
same,Tmax,"[1]; plasma, oral, SAD single dose 40 mg, N = 8, median (min, max), read-out: Tmax",5 h
same,k el,"[1]; plasma, oral, SAD single dose 60 mg, N = 8, mean (SD)",6.11e-06 s⁻¹
same,AUC(0-inf),"[1]; plasma, oral, SAD single dose 60 mg, N = 8, mean (SD), read-out: AUC0-∞",4.24 µg·h/mL
same,MRT,"[1]; plasma, oral, SAD single dose 60 mg, N = 8, mean (SD), read-out: MRT",35.3 h
same,Vd/F,"[1]; plasma, oral, SAD single dose 60 mg, N = 8, mean (SD), read-out: Vz/F",762 L
same,half-life,"[1]; plasma, oral, SAD single dose 60 mg, N = 8, mean (SD), read-out: t1/2 (converted)",36.6 h
same,Tmax,"[1]; plasma, oral, SAD single dose 60 mg, N = 8, median (min, max), read-out: Tmax",5.5 h
same,k el,"[1]; plasma, oral, SAD single dose 80 mg, N = 8, mean (SD)",6.08e-06 s⁻¹
same,AUC(0-inf),"[1]; plasma, oral, SAD single dose 80 mg, N = 8, mean (SD), read-out: AUC0-∞",5.87 µg·h/mL
same,MRT,"[1]; plasma, oral, SAD single dose 80 mg, N = 8, mean (SD), read-out: MRT",40.5 h
same,Vd/F,"[1]; plasma, oral, SAD single dose 80 mg, N = 8, mean (SD), read-out: Vz/F",666 L
same,half-life,"[1]; plasma, oral, SAD single dose 80 mg, N = 8, mean (SD), read-out: t1/2 (converted)",33.4 h
same,Tmax,"[1]; plasma, oral, SAD single dose 80 mg, N = 8, median (min, max), read-out: Tmax",6 h
same,AUC(0-t),"[1]; plasma, oral, across single-dose groups 2.5–80 mg, read-out: AUC0-t, geometric mean range",0.172 to 5.58 µg·h/mL
same,AUC(0-inf),"[1]; plasma, oral, across single-dose groups 2.5–80 mg, read-out: AUC0-∞, geometric mean range",0.214 to 5.79 µg·h/mL
same,AUC(0-t),"[1]; plasma, oral, across single-dose groups 2.5–80 mg, read-out: AUC0–24h, geometric mean range",0.0884 to 2.68 µg·h/mL
same,Cmax,"[1]; plasma, oral, across single-dose groups 2.5–80 mg, read-out: Cmax, geometric mean range",0.0051 to 0.157 µg/mL
same,Vd/F,"[1]; plasma, oral, across single-dose groups 2.5–80 mg, read-out: apparent volume of distribution (Vz/F), range of arithmetic means",430 to 772 L
same,half-life,"[1]; plasma, oral, across single-dose groups 2.5–80 mg, read-out: half-life (t1/2), range of arithmetic means",27.2 to 38.6 h
same,MRT,"[1]; plasma, oral, across single-dose groups 2.5–80 mg, read-out: mean residence time (MRT), range of arithmetic means",35.3 to 44.8 h
same,Tmax,"[1]; plasma, oral, across single-dose groups 2.5–80 mg, read-out: median time to peak plasma concentration (Tmax), range",5 to 8 h
same,AUC(0-inf),"[1]; plasma, po, SAD single dose 20 mg, N = 8, mean (SD), read-out: AUC0-∞",1.52 µg·h/mL
same,Cmax higher than Vilazodone,[1]; equivalent 20 mg doses (40.6 vs. 28.5 ng/mL),42%
same,AUC0-∞ greater than Vilazodone,"[1]; equivalent 20 mg doses (1,519.6 vs. 502 h ng/mL)",threefold greater
same,efficacy relative to HEC61139 (Vilazodone),rodent,more potent efficacy

# From article PMC11979273, “A phase I study to evaluate the safety, tolerability, and pharmacokinetics of HEC113995PA·H2O, a novel dual-acting serotonergic antidepressant, in healthy subjects” (Frontiers in Pharmacology, 2025)
